We go through 21 compounds from US9951088B2, “D2 receptor modulators and methods of use thereof in the treatment of diseases and disorders” (SUNOVION PHARMACEUTICALS INC., priority 2012, dated 2018).

pEC50, pIC50: −log10 of the molar value.

Experiment [1] addresses T1, long isoform of human D2 receptor (Homo sapiens, UniProt P14416). In words: Arrestin Antagonist Assay (DRD2L PathHunter CHO-K1 cells, vs EC80 dopamine). Conditions: for Emax: CHO-K1, read-out: β-arrestin (antagonist mode) Imax.
Procedure: (§1) Cell Lines: Activities of the compounds were assessed using a Chinese Hamster Ovary (CHO—K1) cell line that recombinantly expressed the long isoform of human D2 receptor (DRD2L PathHunter cells). The D2 receptor DNA sequence was modified to contain a “ProLink” at its C-terminus which allowed complementation with an “enzyme acceptor” (EA)-tagged β-arrestin protein. The recruitment of the O-arrestin by the D2 receptor led to complementation of the ProLink and EA and formation of active β-galactosidase which generated a D2-specific signal that was measured.
Arrestin Antagonist Assay: One day prior to testing, a vial of high density stock of DRD2L PathHunter cells was thawed, and 1×10^7 cells diluted into 40 mL of growth media (Ham's F12/10% HI FBS/1% PSG). 20 μL cells per well were seeded directly into assay plates, and the plates were allowed to rest for 1 h at RT before incubating in a plate incubator overnight.
The plate was incubated for 30 min at 37° C. 15 μL PathHunter detection reagent was added to each well of the assay plate, which was then covered and incubated for 1 h at RT. The plate was read on an Envision reader using the Luminescence protocol, and the data were exported for analysis.
The IC50 values (concentration producing a half-maximal inhibitory response) were determined by non-linear regression analysis of the concentration-response curves.
Experiment [2] has as its target T1, long isoform of human D2 receptor. In words: cAMP HTRF Agonist Assay (DRD2L PathHunter CHO-K1 cells, forskolin-stimulated). The conditions noted are these: for Emax: CHO-K1, read-out: cAMP (agonist mode) Emax.
Procedure: Cell Lines: Activities of the compounds were assessed using a Chinese Hamster Ovary (CHO—K1) cell line that recombinantly expressed the long isoform of human D2 receptor (DRD2L PathHunter cells). The D2 receptor DNA sequence was modified to contain a “ProLink” at its C-terminus which allowed complementation with an “enzyme acceptor” (EA)-tagged β-arrestin protein. The recruitment of the O-arrestin by the D2 receptor led to complementation of the ProLink and EA and formation of active β-galactosidase which generated a D2-specific signal that was measured. The cAMP assay was measured in the same D2-expressing cell line. The D2 receptor inhibited cAMP formation so that the basal levels of cAMP were increased by the addition of an adenylate cyclase stimulator, forskolin.
cAMP HTRF Agonist Assay: Two days prior to testing, a vial of high density stock of DRD2L PathHunter cells was thawed, and cells were diluted into 10 mL of growth media (Ham's F12/10% HI FBS/1% PSG) and used to seed a T225 flask containing 50 mL of growth media. Cells were cultured for 2 days.
On the day of the assay, cells were dissociated in 5 mL cell dissociation buffer (enzyme free—Invitrogen) for 10-15 minutes at 37° C. Dissociated cells were diluted with 10 mL of growth media and counted. Cell counts were routinely ˜2×10^7 per T225. Cells were then pelleted at 1500 rpm for 5 min. Supernatant was aspirated, and cells were re-suspended in HBSS/20 mM Hepes, pH 7.4 to a cell density of 1×10^6/mL.
cAMP levels were determined using the Cisbio HTRF method. HRTF reagents (cAMP-HTRF acceptor fluorophore (d2) conjugate and cryptate-labeled anti-cAMP antibody) were prepared according to maunfacturers instructions. 5 μL of each were added to each well of an assay plate and incubated for 1 h at RT. The plate was then read on an Envision reader using the HTRF protocol, and data were exported for analysis.
(§2) The agonist Emax results were expressed as a percent of the dopamine control response ((measured specific response/control specific agonist response)×100) obtained in the presence of test article. The EC50 values (concentration producing a half-maximal specific response) were determined by non-linear regression analysis of the concentration-response curves.
Experiment [3] has the same target. In words: Arrestin Agonist Assay (DRD2L PathHunter CHO-K1 cells, β-arrestin recruitment). Conditions: for Emax: CHO-K1, read-out: β-arrestin (agonist mode) Emax.
Procedure: as §1
Arrestin Agonist Assay: One day prior to testing, a vial of high density stock of DRD2L PathHunter cells was thawed, and 1×10^7 cells diluted into 40 mL of growth media (Ham's F12/10% HI FBS/1% PSG). 20 μL cells per well were seeded directly into assay plates, and the plates were allowed to rest for 1 h at RT before incubating in a plate incubator overnight.
5 μL diluted compound was added to cells in each well, and the assay plate was incubated for 90 min at 37° C. 12.5 μL PathHunter detection reagent was added to each well of the assay plate, which was then covered and incubated for 1 h at RT. The plate was read on an Envision reader using the Luminescence protocol, and the data were exported for analysis.
as §2

T1 sequence (P14416 whole entry, canonical isoform): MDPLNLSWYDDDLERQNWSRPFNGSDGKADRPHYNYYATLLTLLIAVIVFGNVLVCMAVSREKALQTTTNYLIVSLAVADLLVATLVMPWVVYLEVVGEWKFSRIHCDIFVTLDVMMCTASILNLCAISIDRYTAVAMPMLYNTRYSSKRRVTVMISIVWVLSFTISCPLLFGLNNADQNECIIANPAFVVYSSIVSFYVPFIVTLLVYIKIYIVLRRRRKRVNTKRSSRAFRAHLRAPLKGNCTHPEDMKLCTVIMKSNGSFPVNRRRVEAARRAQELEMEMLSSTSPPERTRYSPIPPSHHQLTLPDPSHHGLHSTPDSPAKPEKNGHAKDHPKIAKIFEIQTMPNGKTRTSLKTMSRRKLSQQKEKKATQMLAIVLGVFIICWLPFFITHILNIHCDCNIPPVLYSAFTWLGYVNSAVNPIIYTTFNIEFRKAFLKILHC

Turning to `COc1ccc2c(c1)CCN(CCCCOc1ccc3ccc(=O)[nH]c3n1)C2` [Compound 55, 7-(4-(6-methoxy-3,4-dihydroisoquinolin-2(1H)-yl)butoxy)-1,8-naphthyridin-2(1H)-one], in experiment [1], the pIC50 was above 8.00 and the Emax is above 75%. Besides, in experiment [2], the pIC50 is above 8.00 and the Emax lay within 25 to 50%. In addition, in experiment [3], the pEC50 was above 8.00 and the Emax lay within 10 to 25%.

On to `O=c1ccc2ccc(OCCCCN3CCc4cc(F)ccc4C3)nc2[nH]1` [Compound 56, 7-(4-(6-fluoro-3,4-dihydroisoquinolin-2(1H)-yl)butoxy)-1,8-naphthyridin-2(1H)-one], for which, in experiment [1], the negative logarithm of the IC50 (pIC50) was above 8.00 and the Emax was above 75%. For the same compound, in experiment [2], the pIC50 is below 5.00 and the Emax is below 10%. Moreover, in experiment [3], the pEC50 is below 5.00 and the Emax was below 10%.

`N#Cc1ccc2c(c1)CCN(CCCCOc1ccc3ccc(=O)[nH]c3n1)C2` [Compound 57, 2-(4-((7-oxo-7,8-dihydro-1,8-naphthyridin-2-yl)oxy)butyl)-1,2,3,4-tetrahydroisoquinoline-6-carbonitrile]: in experiment [1], the pIC50 is 7.00 to 8.00 and the Emax was above 75%. In experiment [2], the pIC50 was below 5.00 and the Emax is below 10%. In experiment [3], the pEC50 is below 5.00 and the Emax was below 10%.

With `O=c1ccc2ccc(OCCCCN3CCc4cc(C(F)(F)F)ccc4C3)nc2[nH]1` [Compound 58, 7-(4-(6-(trifluoromethyl)-3,4-dihydroisoquinolin-2(1H)-yl)butoxy)-1,8-naphthyridin-2(1H)-one], in experiment [1], the pIC50 is 7.00 to 8.00 and the Emax is above 75%. Also, in experiment [2], the pIC50 was above 8.00 and the Emax lay in the range of 25 to 50%. Also, in experiment [3], the pEC50 was above 8.00 and the Emax lay within 10 to 25%.

`O=c1ccc2ccc(OCCCCN3CCc4cc(Cl)ccc4C3)nc2[nH]1` [Compound 59, 7-(4-(6-chloro-3,4-dihydroisoquinolin-2(1H)-yl)butoxy)-1,8-naphthyridin-2(1H)-one]: in experiment [1], the pIC50 is above 8.00 and the Emax is above 75%. Besides, in experiment [2], the pIC50 is above 8.00 and the Emax fell in the range of 10 to 25%. Also, in experiment [3], the pEC50 was below 5.00 and the Emax was below 10%.

As to `O=c1ccc2ccc(OCCCCN3CCc4c(Cl)cccc4C3)nc2[nH]1` [Compound 60, 7-(4-(5-chloro-3,4-dihydroisoquinolin-2(1H)-yl)butoxy)-1,8-naphthyridin-2(1H)-one], the pIC50 in experiment [1] was below 5.00; in experiment [2], above 8.00. For the same compound, the Emax is below 10% in experiment [1], above 75% in experiment [2] and above 75% in experiment [3]. In experiment [3], this compound had a pEC50 above 8.00.

As to `O=c1ccc2ccc(OCCCCN3CCc4c(cccc4C(F)(F)F)C3)nc2[nH]1` [Compound 61, 7-(4-(5-(trifluoromethyl)-3,4-dihydroisoquinolin-2(1H)-yl)butoxy)-1,8-naphthyridin-2(1H)-one], in experiment [1], the pIC50 was below 5.00 and the Emax was below 10%. For the same compound, in experiment [2], the pIC50 was above 8.00 and the Emax is above 75%. In addition, in experiment [3], the pEC50 is 7.00 to 8.00 and the Emax was above 75%.

Consider `N#Cc1cccc2c1CCN(CCCCOc1ccc3ccc(=O)[nH]c3n1)C2` [Compound 62, 2-(4-((7-oxo-7,8-dihydro-1,8-naphthyridin-2-yl)oxy)butyl)-1,2,3,4-tetrahydroisoquinoline-5-carbonitrile], for which, in experiment [1], the pIC50 is below 5.00 and the Emax was below 10%. Further, in experiment [2], the negative-log IC50 (pIC50) was above 8.00 and the Emax is above 75%. For the same compound, in experiment [3], the pEC50 was above 8.00 and the Emax is 50 to 75%.

Take `O=c1ccc2ccc(OCCCCN3CCc4cccc(C(F)(F)F)c4C3)nc2[nH]1` [Compound 63, 7-(4-(8-(trifluoromethyl)-3,4-dihydroisoquinolin-2(1H)-yl)butoxy)-1,8-naphthyridin-2(1H)-one]: in experiment [1], the pIC50 was 7.00 to 8.00 and the Emax was above 75%. In experiment [2], the pIC50 is below 5.00 and the Emax is below 10%. In addition, in experiment [3], the pEC50 is below 5.00 and the Emax is below 10%.

In the case of `N#Cc1cccc2c1CN(CCCCOc1ccc3ccc(=O)[nH]c3n1)CC2` [Compound 64, 2-(4-((7-oxo-7,8-dihydro-1,8-naphthyridin-2-yl)oxy)butyl)-1,2,3,4-tetrahydroisoquinoline-8-carbonitrile], in experiment [1], the pIC50 was 7.00 to 8.00 and the Emax is above 75%. Moreover, in experiment [2], the pIC50 was above 8.00 and the Emax was 25 to 50%. In experiment [3], the pEC50 was above 8.00 and the Emax lay within 10 to 25%.

Turning to `Cc1ccc2c(c1)CN(CCCCOc1ccc3ccc(=O)[nH]c3n1)CC2` [Compound 65, 7-(4-(7-methyl-3,4-dihydroisoquinolin-2(1H)-yl)butoxy)-1,8-naphthyridin-2(1H)-one], the pIC50 in experiment [1] was 7.00 to 8.00; in experiment [2], above 8.00. Moreover, the Emax was above 75% in experiment [1], 10 to 25% in experiment [2] and below 10% in experiment [3]. The compound further had a pEC50 in experiment [3] below 5.00.

For the compound `O=c1ccc2ccc(OCCCCN3CCc4nn(-c5ccccc5)cc4C3)nc2[nH]1` [Compound 66, 7-(4-(2-phenyl-6,7-dihydro-2H-pyrazolo[4,3-c]pyridin-5(4H)-yl)butoxy)-1,8-naphthyridin-2(1H)-one], in experiment [1], the pIC50 is 7.00 to 8.00 and the Emax is above 75%. In experiment [2], the pIC50 was 7.00 to 8.00 and the Emax was 10 to 25%. In experiment [3], the pEC50 was below 5.00 and the Emax is below 10%.

As to `O=c1ccc2ccc(OCCCCN3CCc4nn(-c5ccccn5)cc4C3)nc2[nH]1` [Compound 67, 7-(4-(2-(pyridin-2-yl)-6,7-dihydro-2H-pyrazolo[4,3-c]pyridin-5(4H)-yl)butoxy)-1,8-naphthyridin-2(1H)-one], in experiment [1], the pIC50 is 6.00 to 7.00 and the Emax was above 75%. In experiment [2], the pIC50 was 7.00 to 8.00 and the Emax fell in the range of 10 to 25%. In addition, in experiment [3], the pEC50 was below 5.00 and the Emax was below 10%.

Consider `O=C1CCc2ccc(OCCCCN3CCc4ccccc4C3)nc2N1` [Compound 68, 7-(4-(3,4-dihydroisoquinolin-2(1H)-yl)butoxy)-3,4-dihydro-1,8-naphthyridin-2(1H)-one], for which, in experiment [1], the pIC50 was 7.00 to 8.00 and the Emax is above 75%. Moreover, in experiment [2], the pIC50 was above 8.00 and the Emax is 25 to 50%. Moreover, in experiment [3], the pEC50 is below 5.00 and the Emax is below 10%.

`O=C1CCc2ccc(OCCCCN3CCc4sccc4C3)nc2N1` [Compound 69, 7-(4-(6,7-dihydrothieno[3,2-c]pyridin-5(4H)-yl)butoxy)-3,4-dihydro-1,8-naphthyridin-2(1H)-one]: in experiment [1], the negative-log IC50 (pIC50) is 7.00 to 8.00 and the Emax is above 75%. In experiment [2], the negative-log IC50 (pIC50) is below 5.00 and the Emax was below 10%. In experiment [3], the pEC50 was below 5.00 and the Emax is below 10%.

Consider `O=C1CCc2ccc(OCCCCN3CCc4ccsc4C3)nc2N1` [Compound 70, 7-(4-(4,5-dihydrothieno[2,3-c]pyridin-6(7H)-yl)butoxy)-3,4-dihydro-1,8-naphthyridin-2(1H)-one], for which, in experiment [1], the pIC50 was 6.00 to 7.00 and the Emax is above 75%. In addition, in experiment [2], the pIC50 was below 5.00 and the Emax is below 10%. Moreover, in experiment [3], the negative logarithm of the EC50 (pEC50) is below 5.00 and the Emax was below 10%.

In the case of `COc1ccc2c(c1)CCN(CCCCOc1ccc3c(n1)NC(=O)CC3)C2` [Compound 71, 7-(4-(6-methoxy-3,4-dihydroisoquinolin-2(1H)-yl)butoxy)-3,4-dihydro-1,8-naphthyridin-2(1H)-one], the results for the pIC50 in experiment [1] and in experiment [2] were 7.00 to 8.00 and below 5.00, respectively. Moreover, the Emax is above 75% in experiment [1], below 10% in experiment [2] and below 10% in experiment [3]. In experiment [3], this compound had a pEC50 below 5.00.

Regarding `O=C1CCc2ccc(OCCCCN3CCc4cc(F)ccc4C3)nc2N1` [Compound 72, 7-(4-(6-fluoro-3,4-dihydroisoquinolin-2(1H)-yl)butoxy)-3,4-dihydro-1,8-naphthyridin-2(1H)-one], in experiment [1], the pIC50 is 7.00 to 8.00 and the Emax was above 75%. In experiment [2], the negative-log IC50 (pIC50) was below 5.00 and the Emax was below 10%. In addition, in experiment [3], the negative logarithm of the EC50 (pEC50) was below 5.00 and the Emax was below 10%.

As for `N#Cc1ccc2c(c1)CCN(CCCCOc1ccc3c(n1)NC(=O)CC3)C2` [Compound 73, 2-(4-((7-oxo-5,6,7,8-tetrahydro-1,8-naphthyridin-2-yl)oxy)butyl)-1,2,3,4-tetrahydroisoquinoline-6-carbonitrile], in experiment [1], the pIC50 was 6.00 to 7.00 and the Emax was above 75%. Moreover, in experiment [2], the pIC50 is below 5.00 and the Emax was below 10%. Moreover, in experiment [3], the pEC50 was below 5.00 and the Emax was below 10%.

As for `O=C1CCc2ccc(OCCCCN3CCc4cc(C(F)(F)F)ccc4C3)nc2N1` [Compound 74, 7-(4-(6-(trifluoromethyl)-3,4-dihydroisoquinolin-2(1H)-yl)butoxy)-3,4-dihydro-1,8-naphthyridin-2(1H)-one], in experiment [1], the pIC50 was 6.00 to 7.00 and the Emax is above 75%. Moreover, in experiment [2], the pIC50 was 7.00 to 8.00 and the Emax fell in the range of 10 to 25%. For the same compound, in experiment [3], the pEC50 was below 5.00 and the Emax was below 10%.

`O=C1CCc2ccc(OCCCCN3CCc4cc(Cl)ccc4C3)nc2N1` [Compound 75, 7-(4-(6-chloro-3,4-dihydroisoquinolin-2(1H)-yl)butoxy)-3,4-dihydro-1,8-naphthyridin-2(1H)-one]: in experiment [1], the pIC50 is 7.00 to 8.00 and the Emax is above 75%. Also, in experiment [2], the pIC50 was above 8.00 and the Emax lay in the range of 10 to 25%. For the same compound, in experiment [3], the pEC50 was below 5.00 and the Emax was below 10%.
